Results from US20160279135A1, “THERAPIES FOR TREATING MYELOPROLIFERATIVE DISORDERS” (Gilead Sciences, Inc., priority 2013, published 2016).
Several values for one entry are separate records, joined by “and”; a condition that tells them apart may be missing. Identical values can stand only once.

Key:
clinical = details: human, in vivo
Source text: For in vitro or in vivo studies, the effect amount of Compounds A, B, C, D, E, or ruxolinitib may be adjusted according to the experimental condition. Similarly, the effect amount of Compounds D1, D2, D3, D4, D5, D6, D7, D8, D9, E1, E2, E3, E4, E5, E6, E7, E8, E9, or F, may be adjusted according to the experimental condition for in vitro or in vivo studies. For example, compounds may be used in the amount of 0.001, 0.002, 0.003, 0.004, 0.005, 0.006, 0.007, 0.008, 0.009, 0.01, 0.02, 0.03, 0.04, 0.05, 0.06, 0.07, 0.08, 0.09, 0.1, 0.2, 0.3, 0.4, 0.5, 0.6, 0.7, 0.8, 0.9, 1.0, 1.5, 2.0, 2.5, 3.0, 3.5, 4.0, 5.0, 6.0, 7.0, 8.0, 9.0, or 10.0 μM. In some studies, the in vitro doses of the compounds may be calculated to correspond to the clinical doses of the compounds. The calculation may consider various factors, such as protein binding and plasma concentration. […] It is understood that the in vitro doses may differ, depend on the assay condition and other calculation factors, and that the clinical doses may differ depend on the disease indication and the patient condition.
(§1) In this study, PBMCs were isolated from the whole blood from five MF patients receiving chronic ruxolitinib treatment (rux 1-rux 5). The cells were treated with either vehicle, ruxolitinib, and/or Compound B for 2 hours then stimulated with TPO (50 ng/mL) for 10 minutes. Ruxolitinib at the dose of 1 or 20 nM and Compound B at the dose of 45, 200, or 700 nM were used.
Next, Pfeiffer cells were treated with IL6 (0 or 3 ng/mL), Compound A (0, 136, 272, or 695 nM), and/or Compound B (0, 74, 200, or 421 nM) (n=4 per group) for 96 hours. The doses in this assay may correspond to those used in a clinical setting. […] In addition, the in-vitro dose of 136 nM Compound A may correspond to the potential Caverage detected in patients receiving Compound A at 300 mg once a day.

Pfeiffer cells = assay: CellTiter-Glo cell viability of Pfeiffer cells with IL6; type: cell-based; details: Homo sapiens, 96 h, IL6 3 ng/mL, n=4, read-out: percentage of viable Pfeiffer cells, AVG
Procedure: Next, Pfeiffer cells were treated with IL6 (0 or 3 ng/mL), Compound A (0, 136, 272, or 695 nM), and/or Compound B (0, 74, 200, or 421 nM) (n=4 per group) for 96 hours.
Cellular viability was determined using the CellTiter-Glo Luminescent Cell Viability Assay (Promega). The percentage of viable cells was normalized to the groups that were not treated with Compound A or Compound B, and standard deviation was calculated.

p-AKT Ser473 = assay: flow cytometry of AKT phosphorylation in CD34+ progenitor cells from MF patients; type: cell-based, human; details: 2 h, MF progenitor cells
Procedure: (§2) In this example, PBMCs were isolated from whole blood of myelofibrosis (MF) patients who had not received treatments (i.e. naïve patients) or received ruxolitinib (i.e. rux-treated patients). The cells were treated with 0.02, 0.2, or 2.0 μM of Compound B or vehicle (0.1% DMSO in 0.1% FBS/RPMI) for 2 hours at 37° C. The cells were then fixed, permeabilized, and stained for FACS analysis. Antibodies specific to p-AKT Ser473 and pS6RP Ser235/236 were used to detect AKT phosphorylation (p-AKT) and S6RP phosphorylation (p-S6RP) in CD34^+/CD3^−/CD14^−/CD19/CD66^− (BD Biosciences) gated cells using flow cytometry. The percentage of basal (i.e. untreated with TPO) AKT and S6RP phosphorylation were normalized to vehicle control (i.e. “no TPO” values shown in Table 2). A two-tailed paired t-test (GraphPad Prism) was used to calculate p-values. Values of p<0.05 were considered significant.
(§3) Also, PBMC cells were treated with Compound B and with TPO as described above. The percentage of TPO-activated AKT and S6RP phosphorylation were normalized to those of TPO-treated vehicle. […] Also, the inhibition to PI3K signaling was dose-dependent to Compound B.
(§4) Similar studies were conducted with PI3K inhibitors Compounds C and D. PBMC from MF patients had received ruxolitinib (rux) and MF patient had received Compound A. The cells were treated with Compounds C or D at 0, 20.0, 200.0, 2000.0 nM for 2 hours at 37° C. Cells were treated with TPO for 10 minutes. The percentage of basal p-AKT and p-S6RP levels were normalized to vehicle control and those of TPO-treated were normalized to TPO-treated vehicle control. The PI3K inhibitors Compounds C and D had the chemical names of (S)-2-(1-((9H-purin-6-yl)amino)ethyl)-6-fluoro-3-phenylquinazolin-4(3H)-one and (S)-2,4-diamino-6-(((5-chloro-8-fluoro-4-oxo-3-(pyridine-3-yl)-3,4-dihydroquinazolin-2-yl)(cyclopropyl)methyl)amino)pyrimidine-5-carbonitrile, respectively.

pS6RP Ser235/236 = assay: flow cytometry of S6RP phosphorylation in CD34+ progenitor cells from MF patients; type: cell-based, human; details: 2 h, MF progenitor cells
Procedure: as §2, §3, §4

p-STAT5 = assay: flow cytometry of p-STAT5 in TPO-stimulated CD34+ cells from MF patients on chronic ruxolitinib (Example 8); type: cell-based, human; details: 2 h, then TPO 50 ng/mL, one value per patient, TPO vehicle = 100
Procedure: as §1
(§5) The treated cells were then fixed, permeabilized and stained for FACS analysis using FACSCalibur analyzed using BD FACSDiva software.

p-S6RP = assay: flow cytometry of p-S6RP in TPO-stimulated CD34+ cells from MF patients on chronic ruxolitinib (Example 8); type: cell-based, human; details: for percentage of the p-S6RP levels: 2 h, then TPO 50 ng/mL, one value per patient, TPO vehicle = 100
Procedure: as §1, §5

pSTAT3 (Tyr705) = assay: Western blot of pSTAT3 in IL6-stimulated Pfeiffer cells; type: cell-based; details: vs 0 ng/mL IL6, normalized to total STAT3, n=1
Procedure: Pfeiffer cells were stimulated for 4 hours with 0, 1, 3, or 10 ng/mL of interleukin 6 (IL6) (n=1 per group) to activate STAT3 (i.e. increase the levels of pSTAT3). The cells were harvested, lysed and analyzed by Western blot. Antibodies specific for pSTAT3 (Tyr705) and total STAT3 were used to detect the levels of pSTAT3 and total STAT3, respectively. Raw pSTAT3 levels were quantified using densitometry software (Image Studio) and normalized to total STAT3 levels.

[1] = 20 nM, Basal, Compound A-treated Cells, vehicle = 100
[2] = 20 nM, Basal, Rux-treated Cells, vehicle = 100
[3] = 20 nM, TPO 10 min, Compound A-treated Cells, TPO-treated vehicle = 100
[4] = 20 nM, TPO 10 min, Rux-treated Cells, TPO-treated vehicle = 100
[5] = 200 nM, Basal, Compound A-treated Cells, vehicle = 100
[6] = 200 nM, Basal, Rux-treated Cells, vehicle = 100
[7] = 200 nM, TPO 10 min, Compound A-treated Cells, TPO-treated vehicle = 100
[8] = 200 nM, TPO 10 min, Rux-treated Cells, TPO-treated vehicle = 100
[9] = 2000 nM, Basal, Compound A-treated Cells, vehicle = 100
[10] = 2000 nM, Basal, Rux-treated Cells, vehicle = 100
[11] = 2000 nM, TPO 10 min, Compound A-treated Cells, TPO-treated vehicle = 100
[12] = 2000 nM, TPO 10 min, Rux-treated Cells, TPO-treated vehicle = 100

Compound	percentage of p-AKT (pAKT) (p-AKT Ser473; [1])	percentage of p-AKT (pAKT) (p-AKT Ser473; [2])	percentage of p-AKT (pAKT) (p-AKT Ser473; [3])	percentage of p-AKT (pAKT) (p-AKT Ser473; [4])	percentage of p-AKT (pAKT) (p-AKT Ser473; [5])	percentage of p-AKT (pAKT) (p-AKT Ser473; [6])	percentage of p-AKT (pAKT) (p-AKT Ser473; [7])	percentage of p-AKT (pAKT) (p-AKT Ser473; [8])	percentage of p-AKT (pAKT) (p-AKT Ser473; [9])	percentage of p-AKT (pAKT) (p-AKT Ser473; [10])	percentage of p-AKT (pAKT) (p-AKT Ser473; [11])	percentage of p-AKT (pAKT) (p-AKT Ser473; [12])	percentage of p-S6RP (pS6) (pS6RP Ser235/236; [1])	percentage of p-S6RP (pS6) (pS6RP Ser235/236; [2])	percentage of p-S6RP (pS6) (pS6RP Ser235/236; [3])	percentage of p-S6RP (pS6) (pS6RP Ser235/236; [4])	percentage of p-S6RP (pS6) (pS6RP Ser235/236; [5])	percentage of p-S6RP (pS6) (pS6RP Ser235/236; [6])	percentage of p-S6RP (pS6) (pS6RP Ser235/236; [7])	percentage of p-S6RP (pS6) (pS6RP Ser235/236; [8])	other results
N#CCNC(=O)c1ccc(-c2ccnc(Nc3ccc(N4CCOCC4)cc3)n2)cc1 [Compound A, N-(cyanomethyl)-4-[2-(4-morpholinoanilino)pyrimidin-4-yl]benzamide]																					Cmax (clinical; 300 mg): 695 nM; viability at 0.136 µM (Pfeiffer cells; 136 nM Compound A): 104%; viability at 0.272 µM (Pfeiffer cells; 272 nM Compound A): 99%; viability at 0.695 µM (Pfeiffer cells; 695 nM Compound A): 73%
C[C@H](Nc1ncnc2[nH]cnc12)c1nc2ccc(F)cc2c(=O)n1-c1ccccc1 [Compound C, (S)-2-(1-((9H-purin-6-yl)amino)ethyl)-6-fluoro-3-phenylquinazolin-4(3H)-one]	89%	88%	65%	65%	82%	90%	59%	53%	75%	75%	43%	24%	82%	65%	66%	84%	75%	59%	70%	62%	percentage of p-S6RP (pS6) (pS6RP Ser235/236; [9]): 53%; percentage of p-S6RP (pS6) (pS6RP Ser235/236; [10]): 43%; percentage of p-S6RP (pS6) (pS6RP Ser235/236; [11]): 36%; percentage of p-S6RP (pS6) (pS6RP Ser235/236; [12]): 42%
N#Cc1c(N)nc(N)nc1N[C@H](c1nc2c(F)ccc(Cl)c2c(=O)n1-c1cccnc1)C1CC1 [Compound D, (S)-2,4-diamino-6-(((5-chloro-8-fluoro-4-oxo-3-(pyridine-3-yl)-3,4-dihydroquinazolin-2-yl)(cyclopropyl)methyl)amino)pyrimidine-5-carbonitrile]	87%	83%	49%	58%	57%	85%	41%	50%	60%	76%	19%	39%	58%	58%	74%	48%	48%	50%	55%	39%	percentage of p-S6RP (pS6) (pS6RP Ser235/236; [9]): 18%; percentage of p-S6RP (pS6) (pS6RP Ser235/236; [10]): 39%; percentage of p-S6RP (pS6) (pS6RP Ser235/236; [11]): 25%; percentage of p-S6RP (pS6) (pS6RP Ser235/236; [12]): 19%
N#CC[C@H](C1CCCC1)n1cc(-c2ncnc3[nH]ccc23)cn1 [ruxolitinib, reference compound]																					in vitro dose corresponding to the Cmin (clinical): 1 nM; Cmax (clinical; 15 mg): 20 nM; percentage of the p-STAT5 levels (p-STAT5; ruxolitinib 1 nM): 83% and 94% and 97% and 68% and 91%; percentage of the p-STAT5 levels (p-STAT5; ruxolitinib 20 nM): 77% and 63% and 74% and 71% and 62%; inhibition at 0.02 µM (p-S6RP; Homo sapiens, ruxolitinib 20 nM alone, TPO-stimulated cells, read-out: p-S6RP levels inhibited or reduced by): 69%; pS6RP levels inhibited (p-S6RP; ruxolitinib 1 nM alone, TPO-stimulated cells): not inhibited; percentage of the p-S6RP levels (p-S6RP; ruxolitinib 1 nM): 101% and 78% and 92% and 129% and 75%; percentage of the p-S6RP levels (p-S6RP; ruxolitinib 20 nM): 42% and 25% and 22% and 34% and 28%
IL6: interleukin 6 (IL6) used to activate STAT3 in Pfeiffer cells																					increase of pSTAT3 levels (STAT3 activation) (pSTAT3 (Tyr705); 1 ng/mL IL6, 4 h): 2.8 fold; increase of pSTAT3 levels (STAT3 activation) (pSTAT3 (Tyr705); 3 ng/mL IL6, 4 h): 3.8 fold; increase of pSTAT3 levels (STAT3 activation) (pSTAT3 (Tyr705); 10 ng/mL IL6, 4 h): 2.5 fold
